Test results taken from patent US6231887A, “Pharmaceutical composition for acidic lipophilic compounds in a form of a self-emulsifying formulation” (priority 1998, dated 2001).

Tests used:
[1] = tested on: retroviral protease; conditions: qualitative statement; compounds disclosed in WO 95/30670; cited from earlier work
[2] = Aqueous solubility in buffer; type: physicochemical; conditions: buffer of pH 6.5 (close to the pH of the intestine), free acid

CCC[C@@]1(CCc2ccccc2)CC(O)=C([C@H](CC)c2cccc(NS(=O)(=O)c3ccc(C(F)(F)F)cn3)c2)C(=O)O1 [compound of formula I]
effectiveness as an inhibitor of retroviral protease [1]: especially effective
solubility [2]: ~1 µg/mL
